Measurements taken from ChEMBL document CHEMBL3621178, “Antidiabetic effect of novel benzenesulfonylureas as PPAR-γ agonists and their anticancer effect” (Bioorg Med Chem Lett, 2015).
The source made the active and inactive calls. The calls are words filed in the database; no cut-off is given here.

Assays:
[1] = test system: CAKI-1; assay: Growth inhibition of human CAKI-1 cells assessed as cell viability at 10 uM incubated for 48 hrs by sulforhodamine B assay; type: functional; conditions: CAKI-1, 48 h, read-out: Activity
[2] = Growth inhibition of human SF539 cells assessed as cell viability at 10 uM incubated for 48 hrs by sulforhodamine B assay; type: functional; conditions: SF-539, 48 h, read-out: Activity
[3] = test system: NCI-H522; assay: Growth inhibition of human NCI-H522 cells assessed as cell viability at 10 uM incubated for 48 hrs by sulforhodamine B assay; type: functional; conditions: NCI-H522, 48 h, read-out: Activity
[4] = test system: Rattus norvegicus; assay: Toxicity in STZ-induced diabetic Wistar rat model assessed as increase in body weight at 30 mg/kg, po repeated for 15 days […]; type: organism-based; conditions: in vivo, 360 h
[5] = test system: 786-0; assay: Growth inhibition of human 786-0 cells assessed as cell viability at 10 uM incubated for 48 hrs by sulforhodamine B assay; type: functional; conditions: 786-0, 48 h, read-out: Activity
[6] = test system: MDA-MB-231; assay: Growth inhibition of human MDA-MB-231 cells assessed as cell viability at 10 uM incubated for 48 hrs by sulforhodamine B assay; type: functional; conditions: MDA-MB-231, 48 h, read-out: Activity
[7] = target: T1, Peroxisome proliferator-activated receptor gamma (Homo sapiens) (UniProt P37231); assay: Agonist activity at PPARgamma (unknown origin) expressed in HEK293 cells assessed as receptor transactivation at 10 uM incubated for 24 hrs by luciferase reporter gene assay; type: cell-based
T1 sequence (whole entry): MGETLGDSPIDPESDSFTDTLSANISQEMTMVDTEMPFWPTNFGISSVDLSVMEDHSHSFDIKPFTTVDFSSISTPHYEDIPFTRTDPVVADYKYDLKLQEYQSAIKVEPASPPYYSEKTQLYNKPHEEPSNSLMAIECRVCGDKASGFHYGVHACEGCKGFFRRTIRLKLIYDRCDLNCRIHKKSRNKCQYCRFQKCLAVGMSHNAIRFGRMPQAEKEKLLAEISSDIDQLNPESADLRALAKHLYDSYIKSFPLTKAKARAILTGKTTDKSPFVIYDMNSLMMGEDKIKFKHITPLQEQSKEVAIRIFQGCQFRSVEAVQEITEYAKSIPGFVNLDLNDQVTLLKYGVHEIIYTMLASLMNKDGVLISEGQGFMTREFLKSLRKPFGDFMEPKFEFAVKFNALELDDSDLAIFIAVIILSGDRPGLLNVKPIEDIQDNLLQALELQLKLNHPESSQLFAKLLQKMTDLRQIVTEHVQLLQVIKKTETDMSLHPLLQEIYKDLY

[8] = Growth inhibition of human COLO205 cells assessed as cell viability at 10 uM incubated for 48 hrs by sulforhodamine B assay; type: functional; conditions: COLO 205, 48 h, read-out: Activity
[9] = test system: T47D; assay: Growth inhibition of human T47D cells assessed as cell viability at 10 uM incubated for 48 hrs by sulforhodamine B assay; type: functional; conditions: read-out: Activity
[10] = Growth inhibition of human HOP92 cells assessed as cell viability at 10 uM incubated for 48 hrs by sulforhodamine B assay; type: functional; conditions: HOP-92, 48 h, read-out: Activity
[11] = test system: TK-10; assay: Growth inhibition of human TK10 cells assessed as cell viability at 10 uM incubated for 48 hrs by sulforhodamine B assay; type: functional; conditions: TK-10, 48 h, read-out: Activity
[12] = test system: A498; assay: Growth inhibition of human A498 cells assessed as cell viability at 10 uM incubated for 48 hrs by sulforhodamine B assay; type: functional; conditions: A498, 48 h, read-out: Activity
[13] = test system: KM12; assay: Growth inhibition of human KM12 cells assessed as cell viability at 10 uM incubated for 48 hrs by sulforhodamine B assay; type: functional; conditions: KM12, 48 h, read-out: Activity
[14] = test system: UACC-62; assay: Growth inhibition of human UACC62 cells assessed as cell viability at 10 uM incubated for 48 hrs by sulforhodamine B assay; type: functional; conditions: UACC-62, 48 h, read-out: Activity
[15] = Growth inhibition of human NCI-ADR-RES cells assessed as cell viability at 10 uM incubated for 48 hrs by sulforhodamine B assay; type: functional; conditions: read-out: Activity
[16] = test system: OVCAR-8; assay: Growth inhibition of human OVCAR8 cells assessed as cell viability at 10 uM incubated for 48 hrs by sulforhodamine B assay; type: functional; conditions: OVCAR-8, 48 h, read-out: Activity
[17] = test system: CCRF-CEM; assay: Growth inhibition of human CCRF-CEM cells assessed as cell viability at 10 uM incubated for 48 hrs by sulforhodamine B assay; type: functional; conditions: read-out: Activity
[18] = test system: ACHN; assay: Growth inhibition of human ACHN cells assessed as cell viability at 10 uM incubated for 48 hrs by sulforhodamine B assay; type: functional; conditions: read-out: Activity
[19] = test system: HOP-62; assay: Growth inhibition of human HOP62 cells assessed as cell viability at 10 uM incubated for 48 hrs by sulforhodamine B assay; type: functional; conditions: HOP-62, 48 h, read-out: Activity
[20] = Growth inhibition of human Hs 578T cells assessed as cell viability at 10 uM incubated for 48 hrs by sulforhodamine B assay; type: functional; conditions: read-out: Activity
[21] = test system: Rattus norvegicus; assay: Antidiabetic activity in STZ-induced diabetic Wistar rat model assessed as reduction in blood glucose level at 30 mg/kg, po repeated for 15 days by GOD-POD method; type: functional, organism-based
[22] = test system: OVCAR-4; assay: Growth inhibition of human OVCAR4 cells assessed as cell viability at 10 uM incubated for 48 hrs by sulforhodamine B assay; type: functional; conditions: OVCAR-4, 48 h, read-out: Activity
[23] = test system: SNB-75; assay: Growth inhibition of human SNB75 cells assessed as cell viability at 10 uM incubated for 48 hrs by sulforhodamine B assay; type: functional; conditions: SNB-75, 48 h, read-out: Activity
[24] = test system: IGROV-1; assay: Growth inhibition of human IGROV1 cells assessed as cell viability at 10 uM incubated for 48 hrs by sulforhodamine B assay; type: functional; conditions: IGROV-1, 48 h, read-out: Activity
[25] = test system: Rattus norvegicus; assay: Antidiabetic activity in Wistar rat assessed as reduction in blood glucose level at 30 mg/kg, po dosed 30 mins before glucose challenge and measured 30 and 60 mins post glucose challenge by OGTT method; type: functional, organism-based
[26] = test system: SK-MEL-2; assay: Growth inhibition of human SK-MEL-2 cells assessed as cell viability at 10 uM incubated for 48 hrs by sulforhodamine B assay; type: functional; conditions: SK-MEL-2, 48 h, read-out: Activity

Row | Structure (SMILES) | viability at 10 µM [1] [%] | viability at 10 µM [2] [%] | viability at 10 µM [5] [%] | viability at 10 µM [6] [%] | viability at 10 µM [8] [%] | viability at 10 µM [9] [%] | viability at 10 µM [10] [%] | viability at 10 µM [12] [%] | viability at 10 µM [13] [%] | viability at 10 µM [14] [%] | viability at 10 µM [15] [%] | viability at 10 µM [16] [%] | viability at 10 µM [17] [%] | viability at 10 µM [18] [%] | viability at 10 µM [19] [%] | viability at 10 µM [20] [%] | viability at 10 µM [22] [%] | viability at 10 µM [23] [%] | viability at 10 µM [24] [%] | Activity [25] | further results
1 | COc1ccc(C2CC(c3ccco3)=NN2c2ccc(S(=O)(=O)NC(=O)NCc3ccccc3)cc2)cc1 (stereo not given) | 97.7 | 90 | 98.6 | 112 | 123 | 84.6 | 80.6 | 96.2 | 105 | 105 | 104 | 97.9 | 99 | 101 | 103 | 105 | 97.1 | 97.8 | 113 | Active | viability at 10 µM [3]: 86.3%; Activity [4]: Non-toxic; Activity [7]: Active; viability at 10 µM [11]: 93%; Activity [21]: Active; viability at 10 µM [26]: 90.7%
2 | COc1ccc(NC(=O)NS(=O)(=O)c2ccc(N3N=C(c4cc5ccccc5oc4=O)CC3c3ccc(N(C)C)cc3)cc2)cc1 (stereo not given) | 88.9 | 91.5 | 96.9 | 97 | 115 | 87.7 | 79.8 | 80.6 | 101 | 88.6 | 100 | 94.9 | 107 | 89.7 | 71.8 | 84.9 | 92.4 | 70.2 | 109 |  | 
3 | CN(C)c1ccc(C2CC(c3cc4ccccc4oc3=O)=NN2c2ccc(S(=O)(=O)NC(=O)NCc3ccccc3)cc2)cc1 (stereo not given) | 49.4 | 70.8 | 68.4 | 78.1 | 78.2 | 64 | 49.1 | 51.2 | 72.9 | 37.6 | 83.1 | 71.7 | 72 | 58.2 | 57.8 | 67.1 | 52.8 | 27.1 | 97.8 | Active | 
4 | O=C(NCc1ccccc1)NS(=O)(=O)c1ccc(N2N=C(c3cc4ccccc4oc3=O)CC2c2cccs2)cc1 (stereo not given) | 94.2 | 103 | 95.3 | 103 | 119 | 97.4 | 94.2 | 107 | 105 | 102 | 103 | 103 | 108 | 102 | 93.6 | 99.6 | 98.2 | 82.3 | 117 |  | viability at 10 µM [3]: 96.3%; viability at 10 µM [11]: 108%; viability at 10 µM [26]: 96%
5 | COc1ccc(C2CC(c3cc4ccccc4oc3=O)=NN2c2ccc(S(=O)(=O)NC(=O)Nc3ccccc3C)cc2)cc1 (stereo not given) | 83.8 | 85.8 | 94.2 | 65.9 | 119 | 95.8 | 60.7 | 94.7 | 102 | 89.2 | 98.1 | 99.9 | 92.6 | 89.7 | 87.3 | 84.8 | 86.9 | 78.3 | 109 | Active | Activity [4]: Non-toxic; Activity [7]: Active; Activity [21]: Active
